Test results published in US20230151003A1, “COMPOUNDS AND METHODS OF USE” (Exelixis, Inc., priority 2020, published 2023).
pIC50: −log10 of the molar value.

Assays:
Mer = target: T1, Mer (Homo sapiens, UniProt Q12866); assay: Mer autophosphorylation ELISA in transient transfected 293A cells; format: cell-based; conditions: Table 3 Cellular Activities; MERTK-transfected 293A cells, phospho-Mer ELISA
T1 construct: host or cells: 293A cells (Thermo Fisher #R70507)
T1 sequence (Q12866 21-999): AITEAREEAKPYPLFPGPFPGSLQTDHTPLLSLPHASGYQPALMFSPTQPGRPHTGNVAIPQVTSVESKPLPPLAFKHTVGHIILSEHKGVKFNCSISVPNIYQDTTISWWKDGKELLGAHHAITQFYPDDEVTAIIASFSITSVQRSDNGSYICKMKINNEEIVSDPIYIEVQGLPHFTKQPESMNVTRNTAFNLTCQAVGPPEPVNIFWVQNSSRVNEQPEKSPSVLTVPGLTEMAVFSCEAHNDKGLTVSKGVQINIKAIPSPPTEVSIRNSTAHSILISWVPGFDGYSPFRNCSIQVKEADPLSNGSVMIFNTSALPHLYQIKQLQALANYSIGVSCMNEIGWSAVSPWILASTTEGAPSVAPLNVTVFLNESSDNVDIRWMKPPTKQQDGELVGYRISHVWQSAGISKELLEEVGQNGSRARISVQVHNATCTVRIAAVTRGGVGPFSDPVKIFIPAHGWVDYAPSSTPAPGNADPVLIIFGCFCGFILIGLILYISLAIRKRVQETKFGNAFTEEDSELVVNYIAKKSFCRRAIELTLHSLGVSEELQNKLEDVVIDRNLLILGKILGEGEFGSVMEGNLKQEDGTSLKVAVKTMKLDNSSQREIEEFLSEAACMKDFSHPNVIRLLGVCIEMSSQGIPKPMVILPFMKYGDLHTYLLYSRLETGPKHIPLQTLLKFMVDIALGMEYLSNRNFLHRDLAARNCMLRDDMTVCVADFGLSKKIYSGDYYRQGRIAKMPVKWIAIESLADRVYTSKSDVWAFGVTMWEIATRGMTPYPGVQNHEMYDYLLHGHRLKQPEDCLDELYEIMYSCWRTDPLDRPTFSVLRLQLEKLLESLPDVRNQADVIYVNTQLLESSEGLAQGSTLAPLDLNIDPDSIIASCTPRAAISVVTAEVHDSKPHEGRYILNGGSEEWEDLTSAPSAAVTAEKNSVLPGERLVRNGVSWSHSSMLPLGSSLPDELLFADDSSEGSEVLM
Procedure, shortened: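 293A cells transiently transfected with human MERTK DNA, replated after 24 h, then treated 1 h with 8-point compound dilutions in serum-free medium (0.3% DMSO). Lysates assayed by phospho-Mer sandwich ELISA against phospho-Mer standard; DMSO = 100%, reference inhibitor = 0% activity; IC50 by 4-parameter logistic fit.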

Met = Met (Homo sapiens, UniProt P08581); assay: Met autophosphorylation ELISA in PC-3 cells; format: cell-based; design: endogenous in cells; host or cells: PC-3 prostate cancer cells (ATCC #CRL-1435); conditions: Table 3 Cellular Activities, HGF-stimulated, phospho-Met ELISA, read-out: c-Met IC50
Procedure, shortened: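 Serum-starved (3 h) PC-3 cells pre-incubated 1 h with compound (8-point dose curve, 0.3% DMSO), then stimulated with 100 ng/mL recombinant human HGF for 10 min. Lysate phospho-Met (panTyr) measured by sandwich ELISA; IC50 from 4-parameter logistic fit, normalised to DMSO (100%) and reference-inhibitor (0%) controls.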

Sequence of Met (P08581 25-1390): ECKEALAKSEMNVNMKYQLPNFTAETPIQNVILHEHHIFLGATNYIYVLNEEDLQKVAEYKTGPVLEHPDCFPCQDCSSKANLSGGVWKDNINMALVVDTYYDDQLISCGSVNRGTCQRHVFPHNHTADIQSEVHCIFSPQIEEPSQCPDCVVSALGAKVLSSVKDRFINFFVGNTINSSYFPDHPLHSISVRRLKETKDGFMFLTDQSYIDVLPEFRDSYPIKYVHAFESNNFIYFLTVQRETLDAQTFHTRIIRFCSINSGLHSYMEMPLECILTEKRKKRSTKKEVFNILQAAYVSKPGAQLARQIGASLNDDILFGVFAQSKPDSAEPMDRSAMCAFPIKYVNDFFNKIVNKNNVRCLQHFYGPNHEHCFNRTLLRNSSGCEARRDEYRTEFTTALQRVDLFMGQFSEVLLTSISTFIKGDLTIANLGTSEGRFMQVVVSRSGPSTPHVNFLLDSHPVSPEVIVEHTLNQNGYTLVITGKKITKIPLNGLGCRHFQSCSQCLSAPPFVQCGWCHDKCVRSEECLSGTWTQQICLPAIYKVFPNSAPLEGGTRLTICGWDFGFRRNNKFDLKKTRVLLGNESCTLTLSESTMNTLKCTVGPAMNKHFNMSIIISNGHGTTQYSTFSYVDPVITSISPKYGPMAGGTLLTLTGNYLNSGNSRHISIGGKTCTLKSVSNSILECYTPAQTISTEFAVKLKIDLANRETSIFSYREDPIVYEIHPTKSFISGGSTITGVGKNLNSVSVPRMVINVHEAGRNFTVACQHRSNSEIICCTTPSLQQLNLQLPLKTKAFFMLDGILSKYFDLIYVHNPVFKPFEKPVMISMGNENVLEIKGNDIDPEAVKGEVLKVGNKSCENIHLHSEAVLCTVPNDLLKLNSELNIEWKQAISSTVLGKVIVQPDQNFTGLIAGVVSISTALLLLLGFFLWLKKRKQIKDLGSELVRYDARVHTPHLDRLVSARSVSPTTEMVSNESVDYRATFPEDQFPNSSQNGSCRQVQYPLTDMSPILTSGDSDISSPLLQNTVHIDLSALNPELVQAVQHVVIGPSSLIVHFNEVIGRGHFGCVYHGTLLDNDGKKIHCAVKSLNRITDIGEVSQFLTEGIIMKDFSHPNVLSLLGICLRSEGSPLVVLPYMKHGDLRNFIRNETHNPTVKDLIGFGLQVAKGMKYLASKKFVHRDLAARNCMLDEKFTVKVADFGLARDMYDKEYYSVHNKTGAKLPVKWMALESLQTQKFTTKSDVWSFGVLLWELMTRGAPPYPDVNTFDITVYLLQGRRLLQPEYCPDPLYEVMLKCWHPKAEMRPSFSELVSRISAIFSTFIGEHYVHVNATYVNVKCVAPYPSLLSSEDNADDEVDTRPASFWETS

SMILES | pIC50 (Mer) | pIC50 (Met)
COc1cc2nccc(Oc3ccc(NC(=O)c4cn(C)c(C)c(-c5ccc(F)cn5)c4=O)cc3)c2nc1OC [Compound 86, N-[4-[(6,7-Dimethoxy-1,5-naphthyridin-4-yl)oxy]phenyl]-5-(5-fluoropyridin-2-yl)-1,6-dimethyl-4-oxopyridine-3-carboxamide] | ≥ 7.00 | ≥ 7.00
CCOc1ccn(-c2ccc(F)cn2)c(=O)c1C(=O)Nc1ccc(Oc2ccnc3cc(OC)c(OC)nc23)cc1 [Compound 244, N-[4-[(6,7-Dimethoxy-1,5-naphthyridin-4-yl)oxy]phenyl]-4-ethoxy-1-(5-fluoropyridin-2-yl)-2-oxopyridine-3-carboxamide] | ≥ 7.00 | ≥ 7.00
COc1cc2nccc(Oc3ccc(NC(=O)c4cc(C(C)=O)c(C)n(-c5ccco5)c4=O)cc3)c2nc1OC [Compound 237, 5-Acetyl-N-[4-[(6,7-dimethoxy-1,5-naphthyridin-4-yl)oxy]phenyl]-1-(furan-2-yl)-6-methyl-2-oxopyridine-3-carboxamide] | ≥ 7.00 | 6.00 to 6.52
COc1cc2nccc(Oc3ccc(NC(=O)c4cc(C(C)=O)c(C)n(-c5ccco5)c4=O)cc3F)c2nc1OC [Compound 236, 5-Acetyl-N-[4-[(6,7-dimethoxy-1,5-naphthyridin-4-yl)oxy]-3-fluorophenyl]-1-(furan-2-yl)-6-methyl-2-oxopyridine-3-carboxamide] | ≥ 7.00 | 6.00 to 6.52
COc1cc2nccc(Oc3ccc(NC(=O)c4cnc(C)c(-c5ccc(F)cn5)c4O)cc3F)c2nc1OC [Compound 85, N-[4-[(6,7-Dimethoxy-1,5-naphthyridin-4-yl)oxy]-3-fluorophenyl]-5-(5-fluoropyridin-2-yl)-4-hydroxy-6-methylpyridine-3-carboxamide] | ≥ 7.00 | ≥ 7.00
COc1cc2nccc(Oc3ccc(NC(=O)c4cccn(-c5ccc(F)cn5)c4=O)cc3F)c2nc1OC [Compound 42, N-[4-[(6,7-Dimethoxy-1,5-naphthyridin-4-yl)oxy]-3-fluorophenyl]-1-(5-fluoropyridin-2-yl)-2-oxopyridine-3-carboxamide] | ≥ 7.00 | ≥ 7.00
COc1cc2nccc(Oc3ccc(NC(=O)c4c(C)ncc(-c5cccnc5)c4O)cc3F)c2nc1OC [Compound 228, N-[4-[(6,7-Dimethoxy-1,5-naphthyridin-4-yl)oxy]-3-fluorophenyl]-4-hydroxy-2-methyl-5-pyridin-3-ylpyridine-3-carboxamide] | ≥ 7.00 | ≥ 7.00
COc1cc2nccc(Oc3ccc(NC(=O)c4c(C)ncc(-c5ccc(F)cn5)c4O)cc3F)c2nc1OC [Compound 68, N-[4-[(6,7-Dimethoxy-1,5-naphthyridin-4-yl)oxy]-3-fluorophenyl]-5-(5-fluoropyridin-2-yl)-4-hydroxy-2-methylpyridine-3-carboxamide] | ≥ 7.00 | ≥ 7.00
COc1cnc2c(Oc3ccc(NC(=O)c4c(C)ncc(-c5ccccn5)c4O)cc3F)ccnc2c1 [Compound 70, N-[3-Fluoro-4-[(7-methoxy-1,5-naphthyridin-4-yl)oxy]phenyl]-4-hydroxy-2-methyl-5-pyridin-2-ylpyridine-3-carboxamide] | ≥ 7.00 | ≥ 7.00
COc1cc2nccc(Oc3ccc(NC(=O)c4ccc(C)n(-c5ccnc(F)c5)c4=O)cc3F)c2nc1OC [Compound 233, N-[4-[(6,7-Dimethoxy-1,5-naphthyridin-4-yl)oxy]-3-fluorophenyl]-1-(2-fluoropyridin-4-yl)-6-methyl-2-oxopyridine-3-carboxamide] | ≥ 7.00 | ≥ 7.00
COc1cc2nccc(Oc3ccc(NC(=O)c4ccc(C)n(-c5cc[n+]([O-])cc5)c4=O)cc3F)c2nc1OC [Compound 231, N-[4-[(6,7-Dimethoxy-1,5-naphthyridin-4-yl)oxy]-3-fluorophenyl]-6-methyl-1-(1-oxidopyridin-1-ium-4-yl)-2-oxopyridine-3-carboxamide] | ≥ 7.00 | ≥ 7.00
COc1cc2nccc(Oc3ccc(NC(=O)c4ccc(C)n(-c5cccnc5)c4=O)cc3F)c2nc1OC [Compound 222, N-[4-[(6,7-Dimethoxy-1,5-naphthyridin-4-yl)oxy]-3-fluorophenyl]-6-methyl-2-oxo-1-pyridin-3-ylpyridine-3-carboxamide] | ≥ 7.00 | ≥ 7.00
COc1cnc2c(Oc3ccc(NC(=O)c4cc(C(C)=O)c(C)n(-c5ccco5)c4=O)cc3F)ccnc2c1 [Compound 238, 5-Acetyl-N-[3-fluoro-4-[(7-methoxy-1,5-naphthyridin-4-yl)oxy]phenyl]-1-(furan-2-yl)-6-methyl-2-oxopyridine-3-carboxamide] | 6.00 to 6.52 | 6.00 to 6.52
COc1cc2nccc(Oc3ccc(NC(=O)c4ncc(C)n(-c5ccc(F)cn5)c4=O)cc3F)c2nc1OC [Compound 219, N-[4-[(6,7-Dimethoxy-1,5-naphthyridin-4-yl)oxy]-3-fluorophenyl]-4-(5-fluoropyridin-2-yl)-5-methyl-3-oxopyrazine-2-carboxamide] | ≥ 7.00 | ≥ 7.00

Results, then the compound that gave them:

pIC50 (Mer) | pIC50 (Met) | SMILES
≥ 7.00 | ≥ 7.00 | COc1cc2nccc(Oc3ccc(NC(=O)c4c5n(cc(-c6ccco6)c4=O)CCOC5)cc3F)c2nc1OC [Compound 297, N-[4-[(6,7-Dimethoxy-1,5-naphthyridin-4-yl)oxy]-3-fluorophenyl]-7-(furan-2-yl)-8-oxo-3,4-dihydro-1H-pyrido[2,1-c][1,4]oxazine-9-carboxamide]
≥ 7.00 | 6.00 to 6.52 | COc1cc2nccc(Oc3ccc(NC(=O)c4c5n(cc(-c6ccco6)c4=O)CCOC5)cc3)c2nc1OC [Compound 298, N-[4-[(6,7-Dimethoxy-1,5-naphthyridin-4-yl)oxy]phenyl]-7-(furan-2-yl)-8-oxo-3,4-dihydro-1H-pyrido[2,1-c][1,4]oxazine-9-carboxamide]
≥ 7.00 | ≥ 7.00 | COc1cc2nccc(Oc3ccc(NC(=O)c4cn(CCF)c(C)c(-c5cccs5)c4=O)cc3F)c2nc1OC [Compound 327, N-[4-[(6,7-Dimethoxy-1,5-naphthyridin-4-yl)oxy]-3-fluorophenyl]-1-(2-fluoroethyl)-6-methyl-4-oxo-5-thiophen-2-ylpyridine-3-carboxamide]
≥ 7.00 | ≥ 7.00 | COc1cc2nccc(Oc3ccc(NC(=O)c4c5n(cc(-c6cccs6)c4=O)CCOC5)cc3)c2nc1OC [Compound 299, N-[4-[(6,7-Dimethoxy-1,5-naphthyridin-4-yl)oxy]phenyl]-8-oxo-7-thiophen-2-yl-3,4-dihydro-1H-pyrido[2,1-c][1,4]oxazine-9-carboxamide]
≥ 7.00 | ≥ 7.00 | CCc1c(C(=O)Nc2ccc(Oc3ccnc4cc(OC)c(OC)nc34)c(F)c2)c(=O)c(-c2ccco2)c(C)n1C [Compound 324, N-[4-[(6,7-Dimethoxy-1,5-naphthyridin-4-yl)oxy]-3-fluorophenyl]-2-ethyl-5-(furan-2-yl)-1,6-dimethyl-4-oxopyridine-3-carboxamide]
≥ 7.00 | ≥ 7.00 | COc1cnc2c(Oc3ccc(NC(=O)c4cn(CCF)c(C)c(-c5cc(C)cs5)c4=O)cc3F)ccnc2c1 [Compound 328, 1-(2-Fluoroethyl)-N-[3-fluoro-4-[(7-methoxy-1,5-naphthyridin-4-yl)oxy]phenyl]-6-methyl-5-(4-methylthiophen-2-yl)-4-oxopyridine-3-carboxamide]
≥ 7.00 | ≥ 7.00 | COc1cc2nccc(Oc3ccc(NC(=O)c4nccn(-c5ccc(F)cn5)c4=O)cc3F)c2nc1OC [Compound 246, N-[4-[(6,7Dimethoxy-1,5-naphthyridin-4-yl)oxy]-3-fluorophenyl]-4-(5-fluoropyridin-2-yl)-3-oxopyrazine-2-carboxamide]
≥ 7.00 | ≥ 7.00 | COc1cc2nccc(Oc3ccc(NC(=O)c4cnc(C)c(-c5ccco5)c4O)cc3)c2nc1OC [Compound 255, N-[4-[(6,7-Dimethoxy-1,5-naphthyridin-4-yl)oxy]phenyl]-5-(furan-2-yl)-4-hydroxy-6-methylpyridine-3-carboxamide]
